Laboratory results as given in ChEMBL document CHEMBL5247624, “N-sulfonylpiperidinedispiro-1,2,4,5-tetraoxanes exhibit potent in vitro antiplasmodial activity and in vivo efficacy in mice infected with P. berghei ANKA” (Eur J Med Chem, 2022).
The source made the active and inactive calls. The rule behind the calls is not given here.

Key:
[1] = tested on: Huh-7; assay: Cytotoxicity against human Huh-7 cells assessed as reduction in cell viability incubated for 72 hrs by MTT assay; type: functional
[2] = tested on: Plasmodium falciparum; assay: Antiplasmodial activity against erythrocytic stage of chloroquine-sensitive Plasmodium falciparum 3D7 assessed as inhibition of parasite growth incubated for 3 days by HRP2-ELISA assay; type: functional, organism-based; conditions: 3D7, 72 h
[3] = tested on: Plasmodium berghei; assay: Antiplasmodial activity against Plasmodium berghei infected in Swiss Webster mouse assessed as reduction of parasitaemia by measuring partial cure at 2 mg/kg/day,po administrated for 4 days; type: functional; set-up: scale not given: the % may be the effect or the level left; conditions: time 4 day
[4] = tested on: Plasmodium falciparum; assay: Antiplasmodial activity against Plasmodium falciparum W2 infected in human RBC assessed as inhibition of parasite growth incubated for 48 hrs by flow cytometry; type: functional, organism-based; conditions: W2, Erythrocyte
[5] = tested on: Plasmodium berghei; assay: Antiplasmodial activity against Plasmodium berghei ANKA infected in Swiss albino mouse assessed as reduction of parasitaemia at 60 mg/kg/day,ip qd measured at 24 hrs post administration by Giemsa staining assay relative to control; type: functional; set-up: scale not given: the % may be the effect or the level left
[6] = tested on: Plasmodium berghei; assay: Antiplasmodial activity against Plasmodium berghei ANKA infected in Swiss albino mouse assessed as increase in animal survival rate at 60 mg/kg/day,ip qd administrated for 5 subsequent days; type: functional, organism-based
[7] = tested on: Plasmodium berghei; assay: Antiplasmodial activity against Plasmodium berghei ANKA infected in Swiss albino mouse assessed as partial cure by measuring parasitemia at 60 mg/kg/day,ip qd measured after 48 hrs post administration by Giemsa staining assay; type: functional, organism-based
[8] = tested on: Plasmodium berghei; assay: Antiplasmodial activity against Plasmodium berghei ANKA infected in Swiss albino mouse assessed as reduction of parasitaemia at 60 mg/kg/day,ip qd measured after 72 hrs post administration by Giemsa staining assay; type: functional, organism-based
[9] = tested on: Plasmodium berghei; assay: Antiplasmodial activity against Plasmodium berghei ANKA infected in Swiss albino mouse assessed as reduction of parasitaemia at 60 mg/kg/day,ip qd measured after 72 hrs post administration by Giemsa staining assay relative to control; type: functional; set-up: scale not given: the % may be the effect or the level left
[10] = tested on: Plasmodium berghei; assay: Antiplasmodial activity against Plasmodium berghei ANKA infected in Swiss albino mouse assessed as parasite recrudescence by measuring parasitemia at 60 mg/kg/day,ip qd administrated for 4 subsequent days by Giemsa staining assay; type: functional
[11] = tested on: Plasmodium falciparum; assay: Antiplasmodial activity against erythrocytic stage of chloroquine-sensitive Plasmodium falciparum 3D7 infected in human RBC assessed as increase in intracellular ROS level at 10 uM incubated for 3 hrs by H2DCFDA probe based flow cytometry; type: functional, organism-based; conditions: Erythrocyte
[12] = tested on: Plasmodium falciparum; assay: Antiplasmodial activity against erythrocytic stage of chloroquine-sensitive Plasmodium falciparum 3D7 infected in human RBC assessed as increase in intracellular ROS level by measuring green fluorescence at 10 uM incubated for 3 hrs by H2DCFDA probe based fluorescence microscopic analysis; type: functional, organism-based; conditions: Erythrocyte
[13] = tested on: Plasmodium berghei; assay: Antiplasmodial activity against Plasmodium berghei ANKA infected in Swiss albino mouse assessed as increase in parasite clearance rate at 60 mg/kg/day,ip qd administrated for 5 subsequent days by Giemsa staining assay; type: functional, organism-based
[14] = tested on: Plasmodium berghei; assay: Antiplasmodial activity against Plasmodium berghei ANKA infected in Swiss albino mouse assessed as reduction of parasitaemia at 60 mg/kg/day,ip qd administrated for 5 subsequent days by Giemsa staining assay relative to control; type: functional; set-up: scale not given: the % may be the effect or the level left

| Structure (SMILES) | CC50 [1] | IC50 [2] | further results |
| --- | --- | --- | --- |
| Cc1ccc(S(=O)(=O)N2CCC3(CC2)OOC2(CCCCCC2)OO3)cc1 | > 100 µg/mL | 55.3 nM | – |
| CS(=O)(=O)N1CCC2(CC1)OOC1(CCN(S(C)(=O)=O)CC1)OO2 | > 100 µg/mL | 39.6 nM | – |
| C[C@@H]1CC[C@H]2[C@@H](C)C(=O)O[C@@H]3O[C@@]4(C)CC[C@@H]1[C@]32OO4 [ARTEMISININ] | – | 4.74 nM | – |
| CC(C)(N)CNC(=O)O[C@@H]1CCC[C@]2(C1)OOC1(O2)C2CC3CC(C2)CC1C3 (stereo partly drawn) | – | – | Activity [3]: 100%; EC50 [4]: 1.8 nM |
| O=S(=O)(CCCCl)N1CCC2(CC1)OOC1(CCCC1)OO2 | > 100 µg/mL | 8.43 nM | Activity [5]: <0.1%; Activity [6]: Active; Activity [7]: Active; Activity [8]: Active; Activity [9]: 100%; Activity [10]: inactive; Activity [11]: Active; Activity [12]: Active; Activity [13]: Active |
| CCCS(=O)(=O)N1CCC2(CC1)OOC(C)(CC)OO2 | > 100 µg/mL | 23.3 nM | – |
| CCCS(=O)(=O)N1CCC2(CC1)OOC(C)(c1ccccc1)OO2 | > 100 µg/mL | 129 nM | – |
| C1CCCC2(CC1)OOC1(CCCCCC1)OO2 | > 100 µg/mL | 39.4 nM | – |
| CS(=O)(=O)N1CCC2(CC1)OOC1(CCCCCC1)OO2 | > 100 µg/mL | 9.67 nM | Activity [7]: inactive; Activity [10]: >0.1%; Activity [11]: Active; Activity [12]: Active |
| Cc1ccc(S(=O)(=O)N2CCC3(CC2)OOC2(CCCC2)OO3)cc1 | > 100 µg/mL | 24.2 nM | – |
| CCS(=O)(=O)N1CCC2(CC1)OOC1(CCCC1)OO2 | > 100 µg/mL | 11.8 nM | – |
| C[C@H]1[C@H](OC(=O)CCC(=O)O)O[C@@H]2O[C@@]3(C)CC[C@H]4[C@H](C)CC[C@@H]1[C@@]24OO3 [ARTESUNATE] | > 100 µg/mL | 3.3 nM | – |
| CCCS(=O)(=O)N1CCC2(CC1)OOC1(CCCC1)OO2 | > 100 µg/mL | 9450 nM | – |
| CCCCS(=O)(=O)N1CCC2(CC1)OOC1(CCCCC1)OO2 | > 100 µg/mL | 57.2 nM | – |
| CCCS(=O)(=O)N1CCC2(CC1)OOC(C)(C1CC1)OO2 | > 100 µg/mL | 60.2 nM | – |
| O=S(=O)(Cc1ccccc1)N1CCC2(CC1)OOC1(CCCCC1)OO2 | > 100 µg/mL | 49.4 nM | – |
| O=S(=O)(c1ccc(Br)cc1F)N1CCC2(CC1)OOC1(CCCC1)OO2 | > 100 µg/mL | 44.2 nM | – |
| Cc1ccc(S(=O)(=O)N2CCC3(CC2)OOC2(CCCCC2)OO3)cc1 | > 100 µg/mL | 40.2 nM | – |
| COc1ccc(S(=O)(=O)N2CCC3(CC2)OOC2(CCCCCC2)OO3)cc1 | > 100 µg/mL | 46.6 nM | – |
| O=S(=O)(Cc1ccccc1)N1CCC2(CC1)OOC1(CCCC1)OO2 | > 100 µg/mL | 20.6 nM | – |
| O=S(=O)(c1ccc(F)cc1)N1CCC2(CC1)OOC1(CCCCCC1)OO2 | > 100 µg/mL | 37.4 nM | – |
| CCCS(=O)(=O)N1CCC2(CC1)OOC1(CCCCC1)OO2 | > 100 µg/mL | 12.9 nM | Activity [7]: inactive; Activity [10]: >0.1%; Activity [11]: Active; Activity [12]: Active |

| Structure (SMILES) | CC50 [1] | IC50 [2] | further results |
| --- | --- | --- | --- |
| COc1ccc(S(=O)(=O)N2CCC3(CC2)OOC2(CCCC2)OO3)cc1 | > 100 µg/mL | 25.3 nM | – |
| O=S(=O)(CCCCl)N1CCC2(CC1)OOC1(CCCCC1)OO2 | > 100 µg/mL | 40.6 nM | – |
| CCS(=O)(=O)N1CCC2(CC1)OOC1(CCCCCC1)OO2 | > 100 µg/mL | 62.5 nM | – |
| CCCS(=O)(=O)N1CCC2(CC1)OOC(C)(C)OO2 | > 100 µg/mL | 101 nM | – |
| O=S(=O)(c1ccc(F)cc1)N1CCC2(CC1)OOC1(CCCC1)OO2 | > 100 µg/mL | 67 nM | – |
| CCCS(=O)(=O)N1CCC2(CC1)OOC1(CCCCCC1)OO2 | > 100 µg/mL | 4.7 nM | Activity [7]: inactive; Activity [10]: >0.1%; Activity [11]: Active; Activity [12]: Active |
| CS(=O)(=O)N1CCC2(CC1)OOC1(CCCCC1)OO2 | > 100 µg/mL | 16.3 nM | – |
| CCCCS(=O)(=O)N1CCC2(CC1)OOC1(CCCC1)OO2 | > 100 µg/mL | 41.9 nM | – |
| O=S(=O)(CCCCl)N1CCC2(CC1)OOC1(CCCCCC1)OO2 | > 100 µg/mL | 13 nM | – |
| O=S(=O)(Cc1ccccc1)N1CCC2(CC1)OOC1(CCCCCC1)OO2 | > 100 µg/mL | 64.7 nM | – |
| O=S(=O)(c1ccc(F)cc1)N1CCC2(CC1)OOC1(CCCCC1)OO2 | > 100 µg/mL | 77.4 nM | – |
| O=S(=O)(c1ccc(Br)cc1F)N1CCC2(CC1)OOC1(CCCCCC1)OO2 | > 100 µg/mL | 10.4 nM | Activity [7]: inactive; Activity [10]: >0.1%; Activity [11]: Active; Activity [12]: Active |
| CCCS(=O)(=O)N1CCC2(CC1)OOC(C)(C(C)C)OO2 | > 100 µg/mL | 21.4 nM | – |
| CCN(CC)CCCC(C)Nc1ccnc2cc(Cl)ccc12 (stereo not drawn) [CHLOROQUINE] | > 100 µg/mL | 4.36 nM | Activity [5]: 100% |
| CS(=O)(=O)N1CCC2(CC1)OOC1(CCCC1)OO2 | > 100 µg/mL | 41.9 nM | – |
| CCCC1(C)OOC2(CCN(S(=O)(=O)CCC)CC2)OO1 | > 100 µg/mL | 10.9 nM | Activity [7]: inactive; Activity [10]: >0.1%; Activity [11]: Active; Activity [12]: Active |
| COc1ccc(S(=O)(=O)N2CCC3(CC2)OOC2(CCCCC2)OO3)cc1 | > 100 µg/mL | 32.2 nM | – |
| CCS(=O)(=O)N1CCC2(CC1)OOC1(CCCCC1)OO2 | > 100 µg/mL | 10.5 nM | Activity [7]: inactive; Activity [14]: 100%; Activity [8]: Active; Activity [10]: >0.1%; Activity [11]: Active; Activity [12]: Active |
| C[C@H]1[C@@H](O)O[C@@H]2O[C@@]3(C)CC[C@H]4[C@H](C)CC[C@@H]1[C@@]24OO3 [ARTENIMOL] | > 100 µg/mL | 0.7 nM | – |
| CCCCS(=O)(=O)N1CCC2(CC1)OOC1(CCCCCC1)OO2 | > 100 µg/mL | 13.8 nM | – |
| CCCS(=O)(=O)N1CCC2(CC1)OOC(C)(c1ccc(Cl)cc1)OO2 | > 100 µg/mL | 8360 nM | – |
| O=S(=O)(c1ccc(Br)cc1F)N1CCC2(CC1)OOC1(CCCCC1)OO2 | > 100 µg/mL | 322 nM | – |
